Columns and labels:
[1] = Pharmacokinetic parameters of Propofol following intravenous administration in subjects.; settings: human, in vivo
[2] = Pharmacokinetic parameters for Propofol following multiple intravenous administration in subjects.; settings: human, in vivo

CC(C)c1cccc(C(C)C)c1O [PROPOFOL]
clearance [1]: 23 to 50 mL/min/kg
half-life [2]: 24 to 72 h

From ChEMBL document CHEMBL3832043, “DailyMed|setid=ef14e332-51ac-ea97-3542-9bc92557dbed | PROPOFOL- propofol injection, emulsion|APP Pharmaceuticals, LLC”
